{"source": "patent US8802631B2", "about": "“Peptides and methods for the treatment of gliomas and other cancers” (Ludwig Institute for Cancer Research Ltd., priority 2007, dated 2014)", "key": {"rats": {"test_system": "rats", "test": "One-trial step-down inhibitory avoidance (IA) long-term memory test", "type": "in vivo, rat", "text": "Rats were trained in a one-trial, step-down IA paradigm, a hippocampal-dependent learning task in which stepping down from a platform present in a given context is associated with a foot shock, resulting in an increase in step-down latency when the animal is brought back to the training chamber for a retention test (Cammarota et al., 2004). The IA apparatus was a 50×25×25 cm Plexiglas box with a 5-cm-high, 8-cm-wide and 25-cm-long platform on the left end of a series of bronze bars that constitutes the floor of the box. During training, each animal was gently placed on the platform facing the left rear corner of the training box. When an animal stepped down and placed all four of its paws on the grid, it received a 2-s, 0.5-mA foot shock and was then immediately withdrawn from the training box. Animals were replaced in the IA box for retention testing 90 min (for short-term memory (STM)), or 24 h later (for long-term memory (LTM)); their latency to step down onto the grid was recorded. The difference between the training and test-session step-down latencies was taken as a measure of retention. Better memory for the training was inferred from longer retention latencies (Bernabeu et al., 1997; Izquierdo et al., 1997). The maximum retention latency allowed was 180 s, at which time the animal was taken out of the IA box if it had not stepped down and given a score of 180 s. Full details of the experimental protocols can be found in Coitinho et al., 2007.\nThe data obtained in tests of the effect of peptides on rat long-term memory are presented as medians±interquartile range and were analyzed by the Kruskal-Wallis nonparametric test followed by Dunn's post-hoc (n=10 to 13 animals for each treatment group). In all comparisons, p<0.05 was taken as a significant difference.\nFIG. 11: STI1230-245 peptide and TAT-STI1230-245 peptides are capable of increasing long-term memory. The latency to step down before treated rats was recorded (Training) and immediately after training animals received a bilateral hippocampal infusion of saline, STI1230-245 peptide, TAT-STI1230-245 or TAT-STI161-76 irrelevant peptide at the concentration of 15 ng/μl in a total volume of 0.5 μl/side. The latency to step down was tested again 24 hours later (LTM test) and measures Long-term memory (LTM). Data are shown as mean±SE of step-down latencies (n=12 rats in each group). *p<0.05 vs control."}, "U87MG cells": {"test_system": "U87MG cells", "test": "BrdU incorporation assay in U87MG cells", "type": "cell-based, human", "conditions": "24 hours; for effect of TAT peptide on cell proliferation mediated by STI1 (BrdU): TAT peptide 0.17 μM plus STI1 0.17 μM, FIG. 9; for effect of peptide on cell proliferation mediated by STI1 (BrdU): peptide 0.17 μM or 8 μM plus STI1 0.17 μM, FIG. 8; for effect of peptide on STI1-promoted U87MG proliferation (BrdU): FIG. 7B", "method": "Cells were plated overnight on 24-well plates with glass cover slips, at a density of 1.5×10^4 cells per well, with DMEM with 10% FCS at 37° C. Plates were washed 3 times with PBS and were maintained in DMEM F12 for 48 hours. Cells were then treated for 24 hours with DMEM/10% FCS or DMEM plus mouse recombinant STI1 (170 nM); recombinant STI1 (170 nM) plus mouse peptide STI1230-245(ELGNDAYKKKDFDKAL) (SEQ ID NO: 1) or its human homologue peptide Hop230-245(ELGNDAYKKKDFDTAL) (SEQ ID NO: 2) (170 nM or 8 μM); STI1 (170 nM) plus STI1/Hop61-76 (GCKTVDLKPDWGKGYS) (SEQ ID NO: 3) irrelevant peptide (170 nM or 8 μM); or each one of the peptides alone. Two hours before the end of treatment, cells received a pulse of BrdU (35 μM) pulse and were fixed with 4% paraformaldehyde.\nCoverslips were treated with 2N HCl for 30 minutes. The reagent was then removed and borate buffer applied (boric acid 0.1M, sodium hydroxide 0.15M), pH 8.4, for 10 minutes. Then, cells were treated with PBS plus 0.2% Triton X-100 for 15 minutes. The blocking step was made with PBS/0.2% Triton with 20% horse serum, for 1 hour. Primary anti-BrdU biotinylated antibodies (1:100) were applied overnight (diluted in PBS/0.2% Triton with 1% horse serum). Coverslips were washed 3 times with PBS and incubated for one hour with Strepta-Alexa 488 and DAPI reagents (1:1000), washed more 3 times with PBS and assembled to slides.\n(§1) There were taken at least four microscopic fields of each treatment on WB filter, ranging from 330-385 nm (DAPI), plus their respective BrdU images, on WIB filter, 450-480 nm using DP controller software, Olympus. Picture files were analyzed on ImageJ software, and the percentage of BrdU positive nuclei in respect to total nuclei number (DAPI) was calculated using the Analyze Particles tool.\nFIG. 7B: Treatment of U87MG cells with STI1230-245 peptide abrogates cell proliferation mediated by STI1. U87MG human glioblastoma cells were plated at 1.5×10^4 confluence on glass cover slips of 12 mm. After overnight adherence, cells were starved on serum-free media for 48 hours. Cells were subjected to distinct treatments (see picture) for 24 hours, and a BrdU pulse of 32 μM was performed on the last 2 hours of treatment. Immunofluorescence and cell imaging were done in order to permit absolute cell counting. Values represent percentage of BrdU positive cell nuclei from total number of cell nuclei. FCS (fetal calf serum), STI1/Hop (0.17 μM or 8 μM) and/or STI1230-245 (0.17 μM or 8 μM) and/or STI1/Hop61-76 (irrelevant N-terminus STI1/Hop peptide, 0.17 μM or 8 μM). *Statistically significant from control (without treatment), p<0.001. Bars shown as mean±SEM.\nFIG. 8: Hop230-245 peptide inhibits the U87MG cell proliferation mediated by STI1. U87MG human glioblastoma cells were plated at 1.5×10^4 confluence on glass cover slips of 12 mm. After overnight adherence, cells were starved on serum-free media for 48 hours. Cells were subjected to distinct treatments (see picture) for 24 hours, and a BrdU pulse of 32 μM was performed on the last 2 hours of treatment. Immunofluorescence and cell imaging were done in order to permit absolute cell counting. Values represent percentage of BrdU positive cell nuclei from total number of cell nuclei. STI1 (0.17 μM) and/or Hop230-245 (0.17 μM or 8 μM) and/or STI1/Hop61-76 (irrelevant STI1/Hop61-76, 0.17 μM or 8 μM). *Statistically significant from control (without treatment), p<0.01. Bars shown as mean±SEM.\nFIG. 9: Treatment of U87MG cells with TAT-STI1230-245 and TAT-Hop230-245 peptides inhibits cell proliferation mediated by STI1. U87MG human glioblastoma cells were plated at 1.5×10^4 confluence on glass cover slips of 12 mm. After overnight adherence, cells were starved on serum-free media for 48 hours. Cells were subjected to distinct treatments (see picture) for 24 hours, and a BrdU pulse of 32 μM was performed on the last 2 hours of treatment. Immunofluorescence and cell imaging were done in order to permit absolute cell counting. […]"}, "A172 cells [1]": {"test_system": "A172 cells", "test": "[3H]-thymidine incorporation proliferation assay in A172 cells", "type": "cell-based, human", "conditions": "24 hr; for promotion of proliferation by peptide alone: serum-free media, FIG. 6"}, "A172 cells [2]": {"test_system": "A172 cells", "test": "BrdU incorporation assay in A172 cells", "type": "cell-based, human", "conditions": "peptide 170 nM plus STI1 170 nM, 18 hours, FIG. 7A", "method": "Cells were plated overnight on 24-well plates with glass coverslips, at a density of 1×10^4 cells per well, in DMEM high glucose plus 10% FCS at 37° C. Plates were washed 3 times with PBS and were maintained in DMEM without FCS for 30 hours. Cells were then treated for 18 hours with DMEM/10% FCS or DMEM plus mouse recombinant STI1 (170 nM); STI1 (170 nM) plus STI1230-245 peptide (170 nM); or STI1 (170 nM) plus STI161-76 irrelevant peptide (170 nM). Thirty minutes before the end of treatment, cells received a pulse of BrdU (35 μM) and were fixed with 4% paraformaldehyde.\nCoverslips were treated with 2N HCl for 30 minutes. The reagent was then removed and borate buffer applied (boric acid 0.1M, sodium hydroxide 0.15M), pH 8.4, for 10 minutes. Then, cells were treated with PBS plus 0.2% Triton X-100 for 15 minutes. The blocking step was made with PBS/0.2% Triton with 20% horse serum, for 1 hour. […]\nas §1, with “tool. […]” for “tool.”"}, "Erk": {"test_system": "Erk", "test": "Western blot of phospho-Erk in A172 cell lysates", "type": "cell-based, human", "conditions": "inhibitor added 10 minutes prior to STI1"}, "[3]": {"target": "cellular prion protein (PrP^C), endogenous, on human glioblastoma cells (A172, U87MG) (human (A172 human glioblastoma cell line)) (UniProt P04156)", "test": "cell-based or functional assay"}}, "data": [{"compound": "YGRKKRRQRRRELGNDAYKKKDFDKAL (conjugate of seq id nos 1 and 8) [TAT-STI1230-245]", "values": [{"measurement": "effect in memory consolidation", "setting": "rats; rat, in vivo", "value": "potent effect in memory consolidation"}, {"measurement": "long-term memory (retention latency, LTM test 24 hours after training)", "setting": "rats; rat, in vivo", "value": "greatly enhanced long-term memory"}, {"measurement": "effect of TAT peptide on cell proliferation mediated by STI1 (BrdU)", "setting": "U87MG cells", "value": "able to block cell proliferation mediated by STI1"}]}, {"compound": "ELGNDAYKKKDFDTAL (listed as Homo sapiens) [Hop230-245, human homologue of mouse STI1230-245 peptide]", "values": [{"measurement": "effect in memory consolidation", "setting": "rats; rats, FIG. 11", "value": "potent effect in memory consolidation"}, {"measurement": "effect of peptide on cell proliferation mediated by STI1 (BrdU)", "setting": "U87MG cells", "value": "able to abrogate the cell proliferation mediated by STI1"}]}, {"compound": "YGRKKRRQRRRELGNDAYKKKDFDTAL (conjugate of seq id nos 2 and 8) [TAT-Hop230-245]", "values": [{"measurement": "effect in memory consolidation", "setting": "rats; rat, in vivo", "value": "potent effect in memory consolidation"}, {"measurement": "effect of TAT peptide on cell proliferation mediated by STI1 (BrdU)", "setting": "U87MG cells", "value": "able to block cell proliferation mediated by STI1"}]}, {"compound": "ELGNDAYKKKDFDKAL (listed as Mus musculus) [STI1230-245]", "values": [{"measurement": "promotion of proliferation by peptide alone", "setting": "A172 cells [1]", "value": "unable by itself to promote proliferation"}, {"measurement": "effect of peptide on STI1-induced proliferation (BrdU)", "setting": "A172 cells [2]", "value": "inhibited STI1-induced proliferation"}, {"measurement": "long-term memory (retention latency, LTM test 24 hours after training)", "setting": "rats; bilateral hippocampal infusion immediately after training, 15 ng/μl, 0.5 μl/side", "value": "greatly enhanced long-term memory"}, {"measurement": "effect in memory consolidation", "setting": "rats; rats, FIG. 11", "value": "potent effect in memory consolidation"}, {"measurement": "effect of peptide on cell proliferation mediated by STI1 (BrdU)", "setting": "U87MG cells", "value": "able to abrogate the cell proliferation mediated by STI1"}, {"measurement": "effect of peptide on STI1-promoted U87MG proliferation (BrdU)", "setting": "U87MG cells; peptide 170 nM plus STI1 170 nM", "value": "blocked"}, {"measurement": "effect of peptide on STI1-promoted U87MG proliferation (BrdU)", "setting": "U87MG cells; peptide 8 μM plus STI1 170 nM", "value": "blocked"}]}, {"compound": "GCKTVDLKPDWGKGYS (listed as Homo sapiens) [STI1/Hop61-76, N-terminus irrelevant STI1/Hop peptide, reference compound]", "values": [{"measurement": "promotion of proliferation by peptide alone", "setting": "A172 cells [1]", "value": "did not enhance proliferation"}, {"measurement": "effect of peptide on STI1-induced proliferation (BrdU)", "setting": "A172 cells [2]", "value": "no effect"}, {"measurement": "effect of peptide on cell proliferation mediated by STI1 (BrdU)", "setting": "U87MG cells", "value": "had no effect upon proliferation mediated by STI1"}]}, {"compound": "N#CC(=C(/N)Sc1ccccc1N)/C(C#N)=C(\\N)Sc1ccccc1N", "note": "[U0126]", "values": [{"measurement": "effect of inhibitor on STI1-induced proliferation", "setting": "A172 cells [1]; U0126 10 μM or LY294002 5 μM added 10 minutes before STI1 170 nM", "value": "completely abolished STI1-induced proliferation"}, {"measurement": "effect of co-treatment on STI1-induced Erk activation", "setting": "Erk", "value": "abolished"}]}, {"compound": "recombinant mouse stress-inducible phosphoprotein 1 (STI1), wild type (from UniProt Q60864 1-543) (ligand)", "values": [{"measurement": "BrdU incorporation (proliferation) of A172 cells", "setting": "[3]", "value": 1.5, "unit": "fold"}, {"measurement": "BrdU incorporation (proliferation) of U87MG cells", "setting": "[3]", "value": 3, "unit": "fold"}, {"measurement": "[3H]-thymidine incorporation of A172 cells, concentration of the maximum effect", "setting": "[3]", "value": 170, "unit": "nM"}]}]}
